Assay results reported in patent US12686687B2, “Compounds and uses thereof” (Foghorn Therapeutics Inc., priority 2019, dated 2026).

The compounds below were run against T1, Nanoluciferase-BRD9 fusion protein (3×FLAG-NLuc-BRD9) in SYO-1 cells (Homo sapiens, UniProt Q9H8M2) (assay: SYO1 BRD9 NanoLuc degradation assay). Conditions: Table 6B; SYO-1 cells expressing 3×FLAG-NLuc-BRD9, 6 hours incubation, 1 μM top dose; read-out: SYO1 BRD9-NanoLuc degradation IC50.
T1 construct: expressed in transfected cells; host or cells: SYO-1
T1 sequence (Q9H8M2 1-597): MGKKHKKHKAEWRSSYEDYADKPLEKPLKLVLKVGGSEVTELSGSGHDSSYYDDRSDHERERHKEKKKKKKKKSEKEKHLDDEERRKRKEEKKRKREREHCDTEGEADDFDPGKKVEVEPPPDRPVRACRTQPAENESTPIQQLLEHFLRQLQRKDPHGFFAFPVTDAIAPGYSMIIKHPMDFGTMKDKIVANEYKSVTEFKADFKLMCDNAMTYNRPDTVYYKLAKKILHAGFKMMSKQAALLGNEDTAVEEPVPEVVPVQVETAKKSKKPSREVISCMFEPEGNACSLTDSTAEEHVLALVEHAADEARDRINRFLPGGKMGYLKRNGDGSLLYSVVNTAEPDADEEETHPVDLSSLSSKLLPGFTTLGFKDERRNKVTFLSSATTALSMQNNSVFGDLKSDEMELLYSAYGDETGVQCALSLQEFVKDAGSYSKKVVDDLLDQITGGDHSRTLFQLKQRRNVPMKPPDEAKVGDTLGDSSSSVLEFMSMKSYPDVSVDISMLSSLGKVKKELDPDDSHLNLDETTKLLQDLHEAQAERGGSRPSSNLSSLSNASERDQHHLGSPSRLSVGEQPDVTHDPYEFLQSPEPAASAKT
Type: cell-based
Procedure: Procedure: A stable SYO-1 cell line expressing 3×FLAG-NLuc-BRD9 was generated. On day 0 cells were seeded in 30 μL media into each well of 384-well cell culture plates. The seeding density was 8000 cells/well. On day 1, cells were treated with 30 nL DMSO or 30 nL of 3-fold serially DMSO-diluted compounds (10 points in duplicates with 1 μM as final top dose). Subsequently plates were incubated for 6 hours in a standard tissue culture incubator and equilibrated at room temperature for 15 minutes. Nanoluciferase activity was measured by adding 15 μL of freshly prepared Nano-Glo Luciferase Assay Reagent (Promega N1130), shaking the plates for 10 minutes and reading the bioluminescence using an EnVision reader. • Results: The Inhibition % was calculated using the following formula: % Inhibition=100×(LumHC−LumSample)/(LumHC−LumLC). DMSO treated cells are employed as High Control (HC) and 1 μM of a known BRD9 degrader standard treated cells are employed as Low Control (LC).

DC50 [µM] | Structure (SMILES)
> 0.01 | COc1cc(-c2cn(C)c(=O)c3cc(C(=O)NCC4CC5(CCN(CCN6CCN(c7ccc8c(c7)C(=O)N(C7CCC(=O)NC7=O)C8=O)CC6)CC5)O4)sc23)cc(OC)c1CN(C)C (centres unmarked) [Compound D62]
> 0.1 | COc1cc(-c2cn(C)c(=O)c3cc(C(=O)NC4CCC45CCN(C(=O)CCN4CCN(c6ccc7c(c6)C(=O)N(C6CCC(=O)NC6=O)C7=O)CC4)CC5)sc23)cc(OC)c1CN(C)C (centres unmarked) [Compound D54]
> 0.01 | COc1cc(-c2cn(C)c(=O)c3cc(C(=O)NC4CCC5(CCN(C(=O)CCN6CCN(c7ccc8c(c7)C(=O)N(C7CCC(=O)NC7=O)C8=O)CC6)C5)C4)sc23)cc(OC)c1CN(C)C (centres unmarked) [Compound D47]
< 0.01 | COc1cc(-c2cn(C)c(=O)c3cc(C(=O)NC4CCN(CCCCCOc5ccc6c(c5)C(=O)N(C5CCC(=O)NC5=O)C6=O)CC4)sc23)cc(OC)c1CN(C)C (centres unmarked) [Compound D89]
> 0.1 | COc1cc(-c2cn(C)c(=O)c3cc(C(=O)NC4CCN(C)CC4)sc23)cc(OC)c1CN(C)CC(=O)NCCOCCOc1cccc2c1C(=O)N(C1CCC(=O)NC1=O)C2=O (centres unmarked) [Compound D32]
< 0.01 | COc1cc(-c2cn(C)c(=O)c3cc(C(=O)NC4CCN(CCN5CCC6(CC5)CN(c5ccc7c(c5)CN(C5CCC(=O)NC5=O)C7=O)C6)CC4(F)F)sc23)cc(OC)c1CN(C)C (centres unmarked) [Compound D19]
> 0.01 | COc1cc(-c2cn(C)c(=O)c3cc(C(=O)NCC4CC5(C4)CN(CCN4CCN(c6ccc7c(c6)C(=O)N(C6CCC(=O)NC6=O)C7=O)CC4)C5)sc23)cc(OC)c1CN(C)C (centres unmarked) [Compound D53]
> 0.01 | COc1cc(-c2cn(C)c(=O)c3cc(C(=O)NCC4CC5(C4)CN(C(=O)CCN4CCN(c6ccc7c(c6)C(=O)N(C6CCC(=O)NC6=O)C7=O)CC4)C5)sc23)cc(OC)c1CN(C)C (centres unmarked) [Compound D51]
< 0.01 | COc1cc(-c2cn(C)c(=O)c3cc(C(=O)NC4CCN(C5CCN(c6ccc7c(c6)CN(C6CCC(=O)NC6=O)C7=O)CC5)CC4(F)F)sc23)cc(OC)c1CN(C)C (centres unmarked) [Compound D25]
< 0.01 | COc1cc(-c2cn(C)c(=O)c3cc(C(=O)NC4CCN(CCCCCOc5cccc6c5C(=O)N(C5CCC(=O)NC5=O)C6=O)CC4F)sc23)cc(OC)c1CN(C)C (centres unmarked) [Compound D84]
> 0.01 | COc1cc(-c2cn(C)c(=O)c3cc(C(=O)NC4CC5CC4CN5CCCN4CCN(c5ccc6c(c5)C(=O)N(C5CCC(=O)NC5=O)C6=O)CC4)sc23)cc(OC)c1CN(C)C (centres unmarked) [Compound D69]

Same assay, conditions: Table 6C; SYO-1 cells expressing 3×FLAG-NLuc-BRD9, 6 hours incubation, 1 μM top dose; read-out: SYO1 BRD9-NanoLuc degradation IC50

Structure (SMILES) | DC50 [µM]
COc1cc(OC)cc(-c2cn(C)c(=O)c3cc(C(=O)NC4CCN(C5CCN(c6ccc7c(c6)C(=O)N(C6CCC(=O)NC6=O)C7)CC5)CC4(F)F)sc23)c1 (centres unmarked) [Compound D98] | < 0.01
COc1cc2c(=O)n(C)cc(-c3cc(OC)c(CN4CCC5(CC4)CN(c4ccc6c(c4)C(=O)N(C4CCC(=O)NC4=O)C6)C5)c(OC)c3)c2s1 (centres unmarked) [Compound D120] | < 0.01
COc1cc(OC)cc(-c2cn(C)c(=O)c3cc(C(=O)NC4CN(c5ccc6c(c5)C(=O)N(C5CCC(=O)NC5=O)C6)C4)sc23)c1 (centres unmarked) [Compound D115] | < 0.01
Cn1cc(-c2cccc(C(F)(F)F)c2)c2sc(C(=O)NC3CN(c4ccc5c(c4)C(=O)N(C4CCC(=O)NC4=O)C5)C3)cc2c1=O (centres unmarked) [Compound D103] | < 0.01
COc1cc(-c2cn(C)c(=O)c3ccsc23)cc(OC)c1CN1CC(C#Cc2ccc3c(c2)C(=O)N(C2CCC(=O)NC2=O)C3)C1 (centres unmarked) [Compound D92] | < 0.01
COc1cc(-c2cn(C)c(=O)c3cc(C(=O)NC4CCN(c5ccc(OC6CCC(=O)NC6=O)cc5)CC4)sc23)cc(OC)c1CN(C)C (centres unmarked) [Compound D105] | < 0.01

The remaining lines, values ahead:

DC50 [µM] | Structure (SMILES)
< 0.01 | COc1cc(-c2cn(C)c(=O)c3cc(C(=O)N[C@@H]4CCN(C5CCN(c6ccc7c(c6)C(=O)N([C@@H]6CCC(=O)NC6=O)C7)CC5)CC4(F)F)sc23)cc(OC)c1CN(C)C [Compound D134]
> 0.01 | COc1cc(-c2cn(C)c(=O)c3cc(C(=O)NC4CCN(c5ccc6c(c5)C(=O)N(C5CCC(=O)NC5=O)C6)CC4(F)F)oc23)cc(OC)c1CN(C)C (centres unmarked) [Compound D218]
< 0.01 | COc1cc(-c2cn(C)c(=O)c3cc(C(=O)NC4CN(C5CCN(c6ccc7c(c6)C(=O)N(C6CCC(=O)NC6=O)C7)CC5)CC4(F)F)sc23)cc(OC)c1CN(C)C (centres unmarked) [Compound D182]
< 0.01 | COc1cc(-c2cn(C)c(=O)c3scnc23)cc(OC)c1CN1CCC2(CC1)CN(c1ccc3c(c1)C(=O)N(C1CCC(=O)NC1=O)C3)C2 (centres unmarked) [Compound D215]
< 0.01 | COc1cc(-c2cn(C)c(=O)c3ccsc23)cc(OC)c1CN1CCC(CN2CCC3(CC2)CC(Oc2ccc4c(c2)C(=O)N(C2CCC(=O)NC2=O)C4)C3)CC1 (centres unmarked) [Compound D174]
< 0.01 | COc1cc(-c2cn(C)c(=O)c3ccsc23)cc(OC)c1CN1CCN(c2ccc3c(c2)C(=O)N(C2CCC(=O)NC2=O)C3)CC12CCC2 (centres unmarked) [Compound D176]
< 0.01 | COc1cc(-c2cn(C)c(=O)c3cc(C(=O)NC4CCN(C5CCN(c6ccc7c(c6)C(=O)N(C6CCC(=O)NC6=O)C7)CC5(F)F)CC4)sc23)cc(OC)c1CN(C)C (centres unmarked) [Compound D126]
< 0.01 | COc1cc(-c2cn(C)c(=O)c3cc(C(=O)N[C@@H]4CCN(C5CCN(c6ccc7c(c6)C(=O)N([C@@H]6CCC(=O)NC6=O)C7)CC5)CC4(F)F)sc23)cc(OC)c1CN(C)C [Compound D135]
< 0.01 | CCc1cc(-c2cn(C)c(=O)c3cc(C(=O)NC4CCN(C5CCN(c6ccc7c(c6)C(=O)N(C6CCC(=O)NC6=O)C7)CC5)CC4(F)F)sc23)cc(OC)c1CN(C)C (centres unmarked) [Compound D157]
< 0.01 | COc1cc(-c2cn(C)c(=O)c3ccsc23)cc(OC)c1CN1CCC2(CC1)CN(c1ccc3c(c1)C(=O)N(C1CCC(=O)NC1=O)C3=O)C2 (centres unmarked) [Compound D183]
< 0.01 | COc1cc(-c2cn(C)c(=O)c3cc(C(=O)N[C@H]4CCN(C5CCN(c6ccc7c(c6)C(=O)N(C6CCC(=O)NC6=O)C7)CC5)CC4(F)F)sc23)cc(OC)c1CN(C)C (some centres unmarked) [Compound D167]
< 0.01 | COc1cc(-c2cn(C)c(=O)c3c(C)csc23)cc(OC)c1CN1CCC(CN2CCC3(CC2)CN(c2ccc4c(c2)C(=O)N(C2CCC(=O)NC2=O)C4=O)C3)CC1 (centres unmarked) [Compound D161]
< 0.01 | COc1cc(-c2cn(C)c(=O)c3cc(C(=O)NC4CCN(CCN5CCN(c6ccc7c(c6)C(=O)N(C6CCC(=O)NC6=O)C7)CC5)CC4)sc23)cc(OC)c1CN(C)C (centres unmarked) [Compound D130]
< 0.01 | COc1cc(-c2cn(C)c(=O)c3cc(C(=O)NC4CCN(CCCCCOc5ccc6c(c5)CN(C5CCC(=O)NC5=O)C6=O)CC4(F)F)sc23)cc(OC)c1CN(C)C (centres unmarked) [Compound D163]
< 0.01 | COc1cc(-c2cn(C)c(=O)c3cc(C)sc23)cc(OC)c1CN1CCC(CN2CCC3(CC2)CC(Oc2ccc4c(c2)C(=O)N(C2CCC(=O)NC2=O)C4=O)C3)CC1 (centres unmarked) [Compound D173]
< 0.01 | COc1cc(-c2cn(C)c(=O)c3cc(C(=O)N(C)C)sc23)cc(OC)c1CN1CCC2(CC1)CN(c1ccc3c(c1)C(=O)N(C1CCC(=O)NC1=O)C3)C2 (centres unmarked) [Compound D133]
< 0.01 | COc1cc(OC)cc(-c2cn(C)c(=O)c3cc(C(=O)NC4CCN(c5ccc6c(c5)C(=O)N(C5CCC(=O)NC5=O)C6)CC4)oc23)c1 (centres unmarked) [Compound D219]
< 0.01 | COc1cc(-c2c(C)n(C)c(=O)c3ccsc23)cc(OC)c1CN1CCC(CN2CCC3(CC2)CN(c2ccc4c(c2)C(=O)N(C2CCC(=O)NC2=O)C4)C3)CC1 (centres unmarked) [Compound D153]
> 0.1 | COc1cc(-c2cn(C)c(=O)c3cc(C(=O)NC4CCN(C5CC6(C5)CN(c5ccc7c(c5)CN(C5CCC(=O)NC5=O)C7=O)C6)CC4(F)F)sc23)cc(OC)c1CN(C)C (centres unmarked) [Compound D137]
< 0.01 | COc1cc(-c2cn(C)c(=O)c3cc(C(=O)NC4CCN(C)CC4(F)F)sc23)cc(OC)c1CN1CC(CN2CCC3(CC2)CN(c2ccc4c(c2)C(=O)N(C2CCC(=O)NC2=O)C4)C3)C1 (centres unmarked) [Compound D188]
< 0.01 | COc1cc(-c2cn(C)c(=O)c3cc(C(=O)NC4CCN(c5ccc6c(c5)CN(C5CCC(=O)NC5=O)C6=O)CC4(F)F)sc23)cc(OC)c1CN(C)C (centres unmarked) [Compound D164]
< 0.01 | CNC(=O)c1cc2c(=O)n(C)cc(-c3cc(OC)c(CN4CCC5(CC4)CN(c4ccc6c(c4)C(=O)N(C4CCC(=O)NC4=O)C6)C5)c(OC)c3)c2s1 (centres unmarked) [Compound D138]
< 0.01 | COc1cc(-c2cn(C)c(=O)c3ncsc23)cc(OC)c1CN1CC(Oc2ccc3c(c2)CN(C2CCC(=O)NC2=O)C3=O)C1 (centres unmarked) [Compound D206]
< 0.01 | COc1cc(-c2cn(C)c(=O)c3cc(C(=O)NC4CCN(c5ccc6c(c5)C(=O)N(C5CCC(=O)NC5=O)C6=O)CC4(F)F)sc23)cc(OC)c1CN(C)C (centres unmarked) [Compound D192]
